According to patent US20080269174A1 (priority 2005, published 2008):
Values joined by “and” are separate entries in the source; they are usually repeats but may differ in a detail not shown here. Equal entries are not always repeated. Where two headings read alike, the source gives them in different places.

Experiments:
Assay in all cases: microbe, parasite or virus in culture
Format in all cases: cell-based
[1] = tested on: Pythium ultimum
[2] = tested on: Rhizoctonia solani; details: 72 h, read-out: % activity observed
[3] = tested on: Ustilago nuda
[4] = tested on: Pyrenophora graminea; details: for % activity observed: 72 hrs
[5] = tested on: Fusarium graminearum; details: for % activity observed: 48 hrs
[6] = tested on: Monographella nivalis; details: for % activity observed: 72 hrs
[7] = tested on: Gaeumannomyces graminis; details: for % activity observed: 72 hrs
[8] = Globisporangium ultimum, 48 h, read-out: % activity observed
[9] = Ustilago nuda, 48 h, read-out: % activity observed
[10] = Pyrenophora graminea, 72 h, read-out: % activity observed
[11] = Fusarium graminearum, 48 h, read-out: % activity observed, 10 ppm applied alone
[12] = Monographella nivalis, 72 h, read-out: % activity observed
[13] = Gaeumannomyces graminis, 72 h, read-out: % activity observed

CC1COC(Cn2cncn2)(c2ccc(Oc3ccc(Cl)cc3)cc2Cl)O1 (stereo not shown) [Difenconazole, Difenoconazole] was tested, and the inhibition at 0.014 ppm [1, 8] was 5%, the inhibition at 0.041 ppm [1, 8] was 0% and the inhibition at 0.123 ppm [1, 8] was 0%. For the same compound, the inhibition at 0.37 ppm [1, 8] was 0%, the inhibition at 1.111 ppm [1, 8] was 0% and the inhibition at 3.333 ppm [1, 8] was 0%. For the same compound, the inhibition at 10 ppm [1, 8] was 7%, the inhibition at 0.014 ppm [2] was 5% and the inhibition at 0.041 ppm [2] was 0%. The inhibition at 0.123 ppm [2] was 27%, the inhibition at 0.37 ppm [2] was 30% and the inhibition at 1.111 ppm [2] was 84%. The inhibition at 3.333 ppm [2] was 88%, the inhibition at 10 ppm [2] was 84% and the inhibition at 0.014 ppm [3, 9] was 4%. It also gave an inhibition at 0.041 ppm [3, 9] of 0%, an inhibition at 0.123 ppm [3, 9] of 0% and an inhibition at 0.37 ppm [3, 9] of 0%. It also gave an inhibition at 1.111 ppm [3, 9] of 0%, an inhibition at 3.333 ppm [3, 9] of 0% and an inhibition at 10 ppm [3, 9] of 60%. It also gave an inhibition at 0.014 ppm [4, 10] of 20%, an inhibition at 0.041 ppm [4, 10] of 29% and an inhibition at 0.123 ppm [4, 10] of 41%. For the same compound, the inhibition at 0.37 ppm [4, 10] was 70%, the inhibition at 1.111 ppm [4, 10] was 86% and the inhibition at 3.333 ppm [4, 10] was 87%. It also gave an inhibition at 10 ppm [4, 10] of 86%, an inhibition at 0.014 ppm ([5]; Fusarium graminearum, 48 h, read-out: % activity observed, 0.014 ppm applied alone) of 8% and an inhibition at 0.041 ppm ([5]; Fusarium graminearum, 48 h, read-out: % activity observed, 0.041 ppm applied alone) of 6%. For the same compound, the inhibition at 0.123 ppm ([5]; Fusarium graminearum, 48 h, read-out: % activity observed, 0.123 ppm applied alone) was 14%, the inhibition at 0.37037 ppm ([5]; Fusarium graminearum, 48 h, read-out: % activity observed, 0.3703704 ppm applied alone) was 16% and the inhibition at 1.11111 ppm ([5]; Fusarium graminearum, 48 h, read-out: % activity observed, 1.1111111 ppm applied alone) was 34%. For the same compound, the inhibition at 3.33333 ppm ([5]; Fusarium graminearum, 48 h, read-out: % activity observed, 3.3333333 ppm applied alone) was 73% and the inhibition at 10 ppm [5, 11] was 92%.
COCC(=O)N(c1c(C)cccc1C)[C@H](C)C(=O)OC [Mefenoxam] was tested, and the “% activity observed” value ([3]; 48 hrs) was 0% and 2% and 5% and 8%, the “% activity observed” value [4] was 0% and 5% and the “% activity observed” value [6] was 0%. The “% activity observed” value ([5]; 0.014 ppm applied alone) was 6%, the “% activity observed” value ([5]; 0.041 ppm applied alone) was 0% and the “% activity observed” value ([5]; 0.123 ppm applied alone) was 0%. For the same compound, the “% activity observed” value ([5]; 0.370 ppm applied alone) was 0%, the “% activity observed” value ([5]; 1.111 ppm applied alone) was 0% and the “% activity observed” value ([5]; 3.333 ppm applied alone) was 2%. The “% activity observed” value ([5]; 10.000 ppm applied alone) was 1% and the “% activity observed” value [7] was 0% and 4% and 3%.
For CC(C)(C)C(O)(CCc1ccc(Cl)cc1)Cn1cncn1 (stereo not shown) [Tebuconazole], the “% activity observed” value ([1]; 48 hrs) was 2% and 4% and 0%, the inhibition at 0.123 ppm [1, 8] was 1% and the inhibition at 10 ppm [1, 8] was 22%. It also gave an inhibition at 3.333 ppm [2] of 96%, an inhibition at 10 ppm [2] of 100% and an inhibition at 0.014 ppm [3, 9] of 0%. The inhibition at 0.041 ppm [3, 9] was 0%, the inhibition at 10 ppm [3, 9] was 26% and the “% activity observed” value [4] was 54% and 89% and 74%. It also gave an inhibition at 0.041 ppm [4, 10] of 17%, an inhibition at 0.123 ppm [4, 10] of 48% and an inhibition at 0.37 ppm [4, 10] of 57%. The inhibition at 1.111 ppm [4, 10] was 77%, the inhibition at 3.333 ppm [4, 10] was 87% and the inhibition at 10 ppm [4, 10] was 94%. The “% activity observed” value [6] was 6%, the inhibition at 0.014 ppm [6, 12] was 9% and the inhibition at 0.041 ppm [6, 12] was 3%. The inhibition at 1.111 ppm [6, 12] was 0%, the inhibition at 3.333 ppm [6, 12] was 62% and the inhibition at 10 ppm [6, 12] was 94%. For the same compound, the “% activity observed” value ([5]; 0.014 ppm applied alone) was 3% and 1%, the “% activity observed” value ([5]; 0.041 ppm applied alone) was 11% and 5% and 9% and the “% activity observed” value ([5]; 0.370 ppm applied alone) was 34% and 39%. For the same compound, the “% activity observed” value ([5]; 1.111 ppm applied alone) was 62% and 55%, the “% activity observed” value ([5]; 3.333 ppm applied alone) was 88% and the “% activity observed” value ([5]; 10.000 ppm applied alone) was 95% and 97%. It also gave an inhibition at 0.0137 ppm ([5]; Fusarium graminearum, 48 h, read-out: % activity observed, 0.0137 ppm applied alone) of 0%, an inhibition at 0.0412 ppm ([5]; Fusarium graminearum, 48 h, read-out: % activity observed, 0.0412 ppm applied alone) of 7% and an inhibition at 0.1235 ppm ([5]; Fusarium graminearum, 48 h, read-out: % activity observed, 0.1235 ppm applied alone) of 16%. The inhibition at 0.37 ppm ([5]; Fusarium graminearum, 48 h, read-out: % activity observed, 0.370 ppm applied alone) was 37%, the inhibition at 0.3704 ppm ([5]; Fusarium graminearum, 48 h, read-out: % activity observed, 0.3704 ppm applied alone) was 33% and the inhibition at 1.111 ppm ([5]; Fusarium graminearum, 48 h, read-out: % activity observed, 1.111 ppm applied alone) was 50%. It also gave an inhibition at 1.1111 ppm ([5]; Fusarium graminearum, 48 h, read-out: % activity observed, 1.1111 ppm applied alone) of 66%, an inhibition at 3.333 ppm ([5]; Fusarium graminearum, 48 h, read-out: % activity observed, 3.333 ppm applied alone) of 98% and an inhibition at 3.3333 ppm ([5]; Fusarium graminearum, 48 h, read-out: % activity observed, 3.3333 ppm applied alone) of 94%. The inhibition at 10 ppm [5, 11] was 94%, the inhibition at 10 ppm ([5]; Fusarium graminearum, 48 h, read-out: % activity observed, 10.000 ppm applied alone) was 100% and the “% activity observed” value [7] was 100%. For the same compound, the inhibition at 0.041 ppm [7, 13] was 16%, the inhibition at 0.123 ppm [7, 13] was 64% and the inhibition at 0.37 ppm [7, 13] was 97%. It also gave an inhibition at 1.111 ppm [7, 13] of 98%, an inhibition at 3.333 ppm [7, 13] of 98% and an inhibition at 10 ppm [7, 13] of 96%.
